{"source": "patent US20250144267A1", "about": "“USE OF POLYSACCHARIDE DERIVATIVE” (priority 2022, published 2025)", "key": {"[1]": {"system": "MeT-5A (human mesothelial cell line)", "test": "Cell toxicity evaluation (WST assay) of HA-ABA-PMX in MeT-5A", "type": "cell-based", "settings": "PMX 10^−4 to 10 μg/mL, 48 hours", "description": "(§1) As with the HA-ABA, the cell toxicity of HA-ABA-PMX in MeT-5A (human mesothelial cell line) and AB22 cells (mouse mesothelioma cells) was evaluated by WST assay.\n(§2) Specifically, MeT-5A (human mesothelial cell line) and AB22 cells (mouse mesothelioma cells) were seeded on 24-well plates and incubated for 24 hours. The medium was then replaced with medium having HA-ABA-PMX dissolved at different PMX concentrations (10^−4 μg/mL, 10^−3 μg/mL, 10^−2 μg/mL, 10^−1 μg/mL, 1 μg/mL, 10 μg/mL). Cell viability (%) 48 hours after sample addition was then measured by WST-8 assay (Cell Counting Kit-8, Dojindo).\n(§3) For purposes of comparison as a control test, cell toxicity was also evaluated using free PMX and HA-ADH-PMX in place of HA-ABA-PMX."}, "[2]": {"test": "Release test of PMX from HA-ABA-PMX (dialysis tube, PBS)", "type": "physicochemical", "description": "The release behavior or PMX from HA-ABA-PMX at different pH values was investigated using a dialysis tube (MWCO: 1 kDa). 1 mL of an aqueous solution of the HA-ABA-PMX (1 mg/mL) obtained in Example II-2 above was placed in a dialysis tube, and shaken at 50 rpm while being incubated with 79 mL of PBS (37° C., pH=5.0, 6.0 7.4). The external solution (sustained release solution) was collected at specific time points, and new PBS was substituted for the entire amount. The drug concentration in the collected external solution (sustained release solution) was measured by UV-vis, and the release rate of the drug PMX was calculated.\nFor purposes of comparison as control tests, the same release test was also performed with the HA-ABA-PMX solution replaced by an aqueous solution of PMX (0.12 mg/mL) (Free PMX), a mixed solution of HA and PMX obtained by dissolving hyaluronic acid (HA) (1 mg/mL) and PMX (0.12 mg/mL) in water (Free PMX mixed with HA), and an aqueous solution of HA-ADH-PMX having the HA bound irreversibly to the PMX by amide bonds."}, "[3]": {"system": "AB22 cells (mouse mesothelioma cells)", "test": "Cell toxicity evaluation (WST assay) of HA-ABA-PMX in AB22", "type": "cell-based", "settings": "PMX 10^−4 to 10 μg/mL, 48 hours", "description": "as §1, §2, §3"}, "[4]": {"test": "Release test of Van from AL-ABA-Van solution (dialysis membrane, PBS)", "type": "physicochemical", "settings": "PBS pH 5.0, 6.0, 7.4, 37°C", "description": "The release behavior or Van from an AL-ABA-Van solution at different pH values was investigated using a dialysis membrane (pore size: 50 kDa). Specifically, 1 mL of an AL-ABA-Van solution of the AL-ABA-Van obtained in Example I-7 above dissolved in 3 mg/mL of pure water was injected into a dialysis membrane cut to 9 cm, and both ends of the dialysis membrane were tied with kite thread. This was placed in an 80 mL security container, 79 mL of PBS solution was added, and the mixture was stirred at the maximum rotational speed with a 1 cm stirrer tip in a 37° C. thermostatic tank. 1.0 mL samples were taken from the solution in the security container at specific time points (1, 2, 3, 4, 6, 8, 12, 24, and 48 hours). The sample solutions were subjected to UV-vis spectrum measurement, the drug concentration in the solutions was assayed based on absorbance, and the release rate of the drug Van (vancomycin release %) was calculated. The above measurements were conducted with pH 5.0, pH 6.0 and pH 7.4 PBS solutions (n=4 at each pH). […]"}, "[5]": {"system": "AB22 cells (mouse mesothelioma cells)", "test": "Cell toxicity evaluation (WST assay) of HA-ABA-DOX in AB22", "type": "cell-based", "settings": "DOX 10^−3 to 100 μg/mL, 48 hours", "description": "As with the HA-ABA, the cell toxicity of HA-ABA-DOX in AB22 cells (mouse mesothelioma cells) was evaluated by WST assay.\nSpecifically, AB22 cells (mouse mesothelioma cells) were seeded on 24-well plates and incubated for 24 hours. The medium was then replaced with media having HA-ABA-PMX dissolved at different DOX concentrations (10^−3 μg/mL, 10^−2 μg/mL, 10^−1 μg/mL, 1 μg/mL, 10 μg/mL, 100 μg/mL). Cell viability (%) 48 hours after sample addition was then measured by WST-8 assay (Cell Counting Kit-8, Dojindo).\nFor purposes of comparison as a control test, cell toxicity was also evaluated using free DOX in place of HA-ABA-DOX."}}, "note": "Entries after “also recorded” stand apart in the source; their conditions may differ."}
{"molecule": "Nc1nc2[nH]cc(CCc3ccc(C(=O)N[C@@H](CCC(=O)O)C(=O)O)cc3)c2c(=O)[nH]1", "note": "[Free PMX, Pemetrexed, reference compound]", "values": [{"measurement": "Cell growth inhibition effect (cell viability)", "setting": "[1]", "value": "dose-dependent cell growth inhibition effects"}, {"measurement": "PMX release behavior", "setting": "[2]; PBS, 37°C", "value": "almost all of the PMX was rapidly released within 2 hours"}, {"measurement": "Cell growth inhibition effect (cell viability)", "setting": "[3]", "value": "dose-dependent cell growth inhibition effects"}]}
{"molecule": "CN[C@H](CC(C)C)C(=O)N[C@H]1C(=O)N[C@@H](CC(N)=O)C(=O)N[C@H]2C(=O)N[C@H]3C(=O)N[C@H](C(=O)N[C@H](C(=O)O)c4cc(O)cc(O)c4-c4cc3ccc4O)[C@H](O)c3ccc(c(Cl)c3)Oc3cc2cc(c3O[C@@H]2O[C@H](CO)[C@@H](O)[C@H](O)[C@H]2O[C@H]2C[C@](C)(N)[C@H](O)[C@H](C)O2)Oc2ccc(cc2Cl)[C@H]1O", "note": "[Van, Vancomycin]", "values": [{"measurement": "Van release behavior", "setting": "[4]", "value": "almost all of the Van was released in the first 10 hours"}]}
{"molecule": "COc1cccc2c1C(=O)c1c(O)c3c(c(O)c1C2=O)C[C@@](O)(C(=O)CO)C[C@@H]3O[C@H]1C[C@H](N)[C@H](O)[C@H](C)O1", "note": "[free DOX, Doxorubicin]", "values": [{"measurement": "Cell growth inhibition effect (cell viability)", "setting": "[5]", "value": "dose-dependent cell growth inhibition effects on AB22"}]}
{"molecule": "benzaldehyde-modified hyaluronic acid-pemetrexed conjugate [HA-ABA-PMX]", "values": [{"measurement": "Cell growth inhibition effect (cell viability)", "setting": "[1]", "value": "dose-dependent cell growth inhibition effects; also recorded: reduced cell viability at lower concentrations than the free PMX and the HA-ADH-PMX"}, {"measurement": "PMX released (cumulative drug release)", "setting": "[2]; PBS pH 5.0, 37°C, after 24 hours", "value": "more than 80%"}, {"measurement": "PMX not released", "setting": "[2]; PBS pH 7.4, 37°C, after 24 hours", "value": 40, "unit": "%"}, {"measurement": "Cell growth inhibition effect (cell viability)", "setting": "[3]", "value": "dose-dependent cell growth inhibition effects; also recorded: reduced cell viability at lower concentrations than the free PMX and the HA-ADH-PMX"}]}
